The values that follow come from patent publication US6229016A, “Method for treating tumors using 2-aryl-naphthyridin-4-ones” (priority 2000, dated 2001).

In experiment [1] the test system is central nervous system, lung, ovarian, colon, and renal cancers and melanoma and leukemia cell lines. Kind of experiment: Cytotoxicity of isolated flavonol in panels of tumor cell lines. The class given is cell-based. The conditions noted are these: in vitro. An excerpt: In the course of this groups search for novel plant-derived potent cytotoxic agents that are active against slow-growing solid tumors, we have isolated several flavonols as antitumor principles from a phytochemically and biologically heretofore uninvestigated plant, Polanisia dodecandra. […]

Experiment [2] concerns tubulin. Kind of experiment: Tubulin polymerization assay. Format: biochemical, bovine. The conditions noted are these: earlier finding, background section; read-out: IC50, inhibitor of tubulin polymerization. The method, then: Electrophoretically homogeneous bovine brain tubulin was purified as described in E. Hamel, et al. Biochemistry 23:4173 (1984).
The tubulin polymerization assay was performed as described in S. Kuo, et al. J. Med. Chem. 36:1146 (1993); L. Li, et al. J. Med. Chem. 37:1126 (1994); and L. Li J. Med. Chem. 37:3400 (1994). In brief, tubulin at 1.2 mg/ml (12 μM) was preincubated for 15 min at 26° C. in a 0.24-ml volume of 0.8 M monosodium glutamate (pH 6.6 with NaOH in a 2 M stock solution) with varying drug concentrations. The drug stock solutions were in DMSO, and the final solvent concentration was 4 % (v/v). All concentrations are in terms of the final reaction volume (0.25 ml). The reaction mixtures were chilled on ice, and 10 μl of 10 mM GTP was added to each reaction mixture. Samples were transferred to cuvettes held at 0° C. by an electronic temperature controller in Gilford spectrophotometers. Baselines were established at 350 nm, and polymerization initiated by a temperature jump to 26° C. The jump took about 50 sec to complete. After 20 min, turbidity readings were recorded, and the temperature controller was set to 0C. When depolymerization was complete, turbidity readings were again recorded. […] IC50 values were obtained graphically from inhibition of polymerization by different drug concentrations.
Electrophoretically, homogeneous bovine brain tubulin was purified as described in Example 6.
The tubulin polymerization assay was performed as described in Example 6.

Experiment [3] concerns tubulin. Kind of experiment: Colchicine binding assay. Further details: species or system bovine. The conditions noted are these: for ICB (% Inhibition) (inhibition of colchicine binding): evaluated only when polymerization IC50 ≤ 1 μM, 5.0 μM inhibitor, 5.0 μM [3H]colchicine, 1.0 μM tubulin. On the procedure:
Electrophoretically homogeneous bovine brain tubulin was purified as described in E. Hamel, et al. Biochemistry 23:4173 (1984). Combretastatin A-4 was a generous gift of Dr. G. R Pettit, Arizona State University.
Incubation was for 20 min at 37° C. Each reaction mixture was filtered under reduced vacuum through a stack of two DEAE-cellulose paper filters, washed with water, and radioactivity quantitated in a liquid scintillation counter.
[…]. with 36' vs. 33'-35', and with 46' vs. 43'-45').

Take `COc1ccc(-c2oc3c(OC)c(OC)c(OC)c(O)c3c(=O)c2OC)cc1O` [5,3'-dihydroxy-3,6,7,8,4'-pentamethoxyflavone]: in experiment [1], the GI50 values result is given as “low micromolar to nanomolar concentration range”. Also, the IC50 with tubulin [2] amounted to 830 ± 200 nM. In the experiment with tubulin [3] (equimolar concentration with colchicine, background section), the “inhibition of radiolabeled colchicine binding to tubulin” value is on record as 59%.
Regarding `COc1ccc(/C=C\c2cc(OC)c(OC)c(OC)c2)cc1O` [combretastatin A-4, Combretastatin A-4], the “ICB (% Inhibition) (inhibition of colchicine binding)” value in the experiment on tubulin [3] worked out at 91 ± 2%.
As for `COc1cc([C@@H]2c3cc4c(cc3[C@H](O)[C@H]3COC(=O)[C@H]23)OCO4)cc(OC)c1OC` [podophyllotoxin, reference compound], the “ICB (% Inhibition) (inhibition of colchicine binding)” value with tubulin [3] came to 76 ± 5%.

As a reminder, the IC50 is the point on the concentration scale where inhibition reaches its midpoint.
